Where a SMILES comes first, the peptide text is derived from it.
Columns and labels:
[1] = biological target: T1, Erythropoietin receptor (Homo sapiens) (UniProt P19235); test: Compound was evaluated for inhibition of [125I]EPO binding to Erythropoietin receptor (EBP) at a concentration of 50 uM
T1 sequence (whole entry): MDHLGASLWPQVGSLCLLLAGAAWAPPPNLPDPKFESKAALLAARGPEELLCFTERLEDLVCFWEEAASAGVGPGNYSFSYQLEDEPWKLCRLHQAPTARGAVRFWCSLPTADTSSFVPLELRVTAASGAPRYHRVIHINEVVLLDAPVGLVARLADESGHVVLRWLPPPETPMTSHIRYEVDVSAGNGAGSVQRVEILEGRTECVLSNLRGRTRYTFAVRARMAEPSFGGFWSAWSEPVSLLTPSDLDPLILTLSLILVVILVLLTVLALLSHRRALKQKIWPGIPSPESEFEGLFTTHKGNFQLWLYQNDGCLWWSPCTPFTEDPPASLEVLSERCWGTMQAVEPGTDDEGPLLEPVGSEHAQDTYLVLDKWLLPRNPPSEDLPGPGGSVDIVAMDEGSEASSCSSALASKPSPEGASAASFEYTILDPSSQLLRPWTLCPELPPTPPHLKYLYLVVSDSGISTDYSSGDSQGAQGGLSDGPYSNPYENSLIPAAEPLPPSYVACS

[2] = biological target: T2, Erythropoietin receptor (Homo sapiens, UniProt P19235); test: Compound was evaluated for inhibition of [125I]-EPO binding to Erythropoietin receptor (EBP)
T2 sequence (P19235 whole entry): T1 sequence (whole entry)

[3] = biological target: T1, Erythropoietin receptor (Homo sapiens); test: Compound was evaluated for inhibition of [125I]EPO binding to EBP (erythropoietin receptor) at a concentration of 50 uM
[4] = biological target: T2, Erythropoietin receptor; test: Compound was evaluated for inhibition of [125I]EPO binding to Erythropoietin receptor (EBP)

Row | inhibition [1] [%] | IC50 [2] [µM] | inhibition [3] [%] | IC50 [4] [µM] | SMILES
1 | 20 | – | – | – | COC(=O)[C@H](CCCCNC(=O)OC(C)(C)C)NC/C=C/c1cccc(Oc2ccccc2)c1
2 | 6 | – | – | – | COC(=O)[C@H](CCC(=O)O)NC/C=C/c1cccc(Oc2ccccc2)c1
3 | 0 | – | – | – | COC(=O)[C@H](COC(C)(C)C)N(C/C=C/c1cccc(Oc2ccccc2)c1)C/C=C/c1cccc(Oc2ccccc2)c1
4 | 54 | – | – | – | COC(=O)[C@H](CCCCN)N(Cc1ccc(OCc2ccccc2)cc1)Cc1ccc(OCc2ccccc2)cc1
5 | 93 | 1.5 | – | – | O=C(O)CCC(=O)NCCCC[C@H](C(=O)NCCOCCOCCNC(=O)[C@H](CCCCNC(=O)CCC(=O)O)N(Cc1ccc(OCc2ccccc2)cc1)Cc1ccc(OCc2ccccc2)cc1)N(Cc1ccc(OCc2ccccc2)cc1)Cc1ccc(OCc2ccccc2)cc1
6 | 0 | – | – | – | COC(=O)[C@H](CCCCNC(=O)OC(C)(C)C)N(C/C=C/c1cccc(Oc2ccccc2)c1)C/C=C/c1cccc(Oc2ccccc2)c1
7 | 28 | – | – | – | COC(=O)[C@H](CO)NC/C=C/c1cccc(Oc2ccccc2)c1
8 | 70 | 35 | – | – | O=C(O)CC[C@@H](C(=O)O)N(C/C=C/c1cccc(Oc2cccc(C(F)(F)F)c2)c1)C/C=C/c1cccc(Oc2cccc(C(F)(F)F)c2)c1
9 | 56 | 100 | – | – | O=C(O)CCC(=O)NCCCC[C@H](C(=O)NCCCCCCCCCCCCNC(=O)[C@H](CCCCNC(=O)CCC(=O)O)N(Cc1ccc(OCc2ccccc2)cc1)Cc1ccc(OCc2ccccc2)cc1)N(Cc1ccc(OCc2ccccc2)cc1)Cc1ccc(OCc2ccccc2)cc1
10 | 72 | 40 | – | – | C[C@@H](C(=O)O)N(C/C=C/c1cccc(Oc2ccccc2)c1)C/C=C/c1cccc(Oc2ccccc2)c1
11 | 77 | 7 | – | – | O=C(O)CCC(=O)NCCCC[C@@H](C(=O)NCCCOCCOCCOCCCNC(=O)[C@H](CCCCNC(=O)CCC(=O)O)N(Cc1ccc(OCc2ccccc2)cc1)Cc1ccc(OCc2ccccc2)cc1)N(Cc1ccc(OCc2ccccc2)cc1)Cc1ccc(OCc2ccccc2)cc1
12 | 88 | 1.5 | – | – | O=C(O)CCCC(=O)NCCCC[C@H](C(=O)NCCOCCOCCNC(=O)[C@H](CCCCNC(=O)CCCC(=O)O)N(Cc1ccc(OCc2ccccc2)cc1)Cc1ccc(OCc2ccccc2)cc1)N(Cc1ccc(OCc2ccccc2)cc1)Cc1ccc(OCc2ccccc2)cc1
13 | 32 | – | – | – | COC(=O)[C@H](CCC(=O)O)N(C/C=C/c1cccc(Oc2ccc(Cl)c(Cl)c2)c1)C/C=C/c1cccc(Oc2ccc(Cl)c(Cl)c2)c1
14 | 0 | – | – | – | O=C(O)CC[C@H](NC/C=C/c1cccc(Oc2ccccc2)c1)C(=O)O
15 | 8 | – | – | – | COC(=O)[C@H](COC(C)(C)C)NC/C=C/c1cccc(Oc2ccccc2)c1
16 | 0 | – | – | – | COC(=O)[C@H](CCCCNC(=O)OC(C)(C)C)N(C/C=C/c1cccc(Oc2ccc(C(C)(C)C)cc2)c1)C/C=C/c1cccc(Oc2ccc(C(C)(C)C)cc2)c1
17 | 45 | – | – | – | O=C(O)CN(C/C=C/c1cccc(Oc2ccccc2)c1)C/C=C/c1cccc(Oc2ccccc2)c1
18 | – | – | 6 | – | COC(=O)[C@H](CCC(=O)OC(C)(C)C)NC/C=C/c1cccc(Oc2ccccc2)c1
19 | 59 | 10 | – | – | COC(=O)[C@H](CCCCN)N(Cc1cccc(OCc2ccccc2)c1)Cc1cccc(OCc2ccccc2)c1
20 | 75 | 18 | – | – | O=C(O)C[C@H](C(=O)NCCCOCCCCOCCCNC(=O)[C@H](CC(=O)O)N(Cc1ccc(OCc2ccccc2)cc1)Cc1ccc(OCc2ccccc2)cc1)N(Cc1ccc(OCc2ccccc2)cc1)Cc1ccc(OCc2ccccc2)cc1
21 | 79 | – | – | – | O=C(O)CC[C@H](C(=O)NCCOCCOCCNC(=O)[C@H](CCC(=O)O)N(Cc1ccc(OCc2ccccc2)cc1)Cc1ccc(OCc2ccccc2)cc1)N(Cc1ccc(OCc2ccccc2)cc1)Cc1ccc(OCc2ccccc2)cc1
22 | 37 | – | – | – | COC(=O)[C@H](CCCCN)N(Cc1ccc(OCc2ccccc2)cc1)Cc1cccc([N+](=O)[O-])c1

Row | inhibition [1] [%] | IC50 [2] [µM] | inhibition [3] [%] | IC50 [4] [µM] | SMILES
23 | 78 | 10 | – | – | O=C(O)CCCC(=O)NCCCC[C@@H](C(=O)NCCCOCCOCCOCCCNC(=O)[C@H](CCCCNC(=O)CCCC(=O)O)N(Cc1ccc(OCc2ccccc2)cc1)Cc1ccc(OCc2ccccc2)cc1)N(Cc1ccc(OCc2ccccc2)cc1)Cc1ccc(OCc2ccccc2)cc1
24 | 65 | 6 | – | – | O=C(O)CCC(=O)NCCCC[C@H](C(=O)NCCCOCCCCOCCCNC(=O)[C@H](CCCCNC(=O)CCC(=O)O)N(Cc1ccc(OCc2ccccc2)cc1)Cc1ccc(OCc2ccccc2)cc1)N(Cc1ccc(OCc2ccccc2)cc1)Cc1ccc(OCc2ccccc2)cc1
25 | 0 | – | – | – | CC(C)(C)OC(=O)CC[C@H](NC/C=C/c1cccc(Oc2ccccc2)c1)C(=O)O
26 | 78 | 30 | – | – | CC(C)(C)c1ccc(Oc2cccc(/C=C/CN(C/C=C/c3cccc(Oc4ccc(C(C)(C)C)cc4)c3)[C@@H](CCC(=O)O)C(=O)O)c2)cc1
27 | 57 | 145 | – | – | COC(=O)[C@H](CO)N(C/C=C/c1cccc(Oc2ccccc2)c1)C/C=C/c1cccc(Oc2ccccc2)c1
28 | 55 | 85 | – | – | O=C(O)CCCC(=O)NCCCC[C@H](C(=O)NCCCCCCCCCCCCNC(=O)[C@H](CCCCNC(=O)CCCC(=O)O)N(Cc1ccc(OCc2ccccc2)cc1)Cc1ccc(OCc2ccccc2)cc1)N(Cc1ccc(OCc2ccccc2)cc1)Cc1ccc(OCc2ccccc2)cc1
29 | 51 | 2 | – | – | NCCCC[C@H](C(=O)NCCOCCOCCNC(=O)[C@H](CCCCN)N(Cc1ccc(OCc2ccccc2)cc1)Cc1ccc(OCc2ccccc2)cc1)N(Cc1ccc(OCc2ccccc2)cc1)Cc1ccc(OCc2ccccc2)cc1
30 | 78 | 42 | – | – | O=C(O)CC[C@@H](C(=O)O)N(C/C=C/c1cccc(Oc2ccccc2)c1)C/C=C/c1cccc(Oc2ccccc2)c1
31 | 7 | – | – | – | COC(=O)[C@H](CCCCNC(=O)OC(C)(C)C)N(Cc1cccc(OCc2ccccc2)c1)Cc1cccc(OCc2ccccc2)c1
32 | 0 | – | – | – | COC(=O)[C@H](CCC(=O)OC(C)(C)C)N(C/C=C/c1cccc(Oc2ccccc2)c1)C/C=C/c1cccc(Oc2ccccc2)c1
33 | 18 | – | – | – | COC(=O)[C@H](CCCCN)N(C/C=C/c1cccc(Oc2ccc(C(C)(C)C)cc2)c1)C/C=C/c1cccc(Oc2ccc(C(C)(C)C)cc2)c1
34 | 24 | – | – | – | COC(=O)[C@H](CCCCNC(=O)OC(C)(C)C)N(Cc1ccc(OCc2ccccc2)cc1)Cc1cccc([N+](=O)[O-])c1
35 | 82 | 4 | – | – | O=C(O)CCCC(=O)NCCCC[C@H](C(=O)NCCCOCCCCOCCCNC(=O)[C@H](CCCCNC(=O)CCCC(=O)O)N(Cc1ccc(OCc2ccccc2)cc1)Cc1ccc(OCc2ccccc2)cc1)N(Cc1ccc(OCc2ccccc2)cc1)Cc1ccc(OCc2ccccc2)cc1
36 | 5 | – | – | – | COC(=O)[C@H](CCCCNC(=O)OC(C)(C)C)N(Cc1ccc(OCc2ccccc2)cc1)Cc1ccc(OCc2ccccc2)cc1
37 | 77 | 35 | – | – | COC(=O)[C@H](CCCCNS(C)(=O)=O)N(C/C=C/c1cccc(Oc2ccccc2)c1)C/C=C/c1cccc(Oc2ccccc2)c1
38 | – | – | – | 5 | CC(C)C[C@@H]1NC(=O)[C@H]([C@@H](C)O)NC(=O)[C@H](Cc2c[nH]c3ccccc23)NC(=O)[C@H](C(C)C)NC(=O)[C@@H](NC(=O)[C@H](CCCCN)NC(=O)[C@@H]2CCCN2C(=O)[C@H](CCC(N)=O)NC(=O)CNC(=O)CN)CSSC[C@@H](C(=O)N[C@@H](Cc2ccc(O)cc2)C(=O)N[C@@H](CO)C(=O)N[C@H](C(=O)NCC(=O)NCC(N)=O)[C@@H](C)O)NC(=O)[C@H](Cc2c[nH]cn2)NC(=O)[C@H](Cc2ccccc2)NC(=O)CNC(=O)[C@@H]2CCCN2C1=O (HELM PEPTIDE1{G.G.Q.P.K.C.V.W.T.L.P.G.F.H.C.Y.S.T.G.G.[am]}$PEPTIDE1,PEPTIDE1,6:R3-15:R3$$$V2.0)
39 | 73 | 35 | – | – | COC(=O)[C@H](CCCCNC(N)=O)N(C/C=C/c1cccc(Oc2ccccc2)c1)C/C=C/c1cccc(Oc2ccccc2)c1
40 | 20 | – | – | – | CC(C)(C)OC(=O)C[C@@H](C(=O)OC(C)(C)C)N(C/C=C/c1cccc(Oc2ccccc2)c1)C/C=C/c1cccc(Oc2ccccc2)c1
41 | 81 | – | – | – | O=C(O)C[C@@H](C(=O)O)N(C/C=C/c1cccc(Oc2ccccc2)c1)C/C=C/c1cccc(Oc2ccccc2)c1
42 | 23 | – | – | – | O=C(O)[C@H](CO)NC/C=C/c1cccc(Oc2ccccc2)c1
43 | 66 | 28 | – | – | O=C(O)C[C@@H](C(=O)NCCCOCCOCCOCCCNC(=O)[C@H](CC(=O)O)N(Cc1ccc(OCc2ccccc2)cc1)Cc1ccc(OCc2ccccc2)cc1)N(Cc1ccc(OCc2ccccc2)cc1)Cc1ccc(OCc2ccccc2)cc1
